Source: patent publication US20140107109A1, “AMINO-DIHYDROTHIAZINE AND AMINO-DIOXIDO DIHYDROTHIAZINE COMPOUNDS AS BETA-SECRETASE ANTAGONISTS AND METHODS OF USE” (Amgen Inc., priority 2012, published 2014)
Read-outs that look alike come from different tables or passages of the source.

What was measured:
Cathepsin D (Cat D) = target: T1, Cathepsin D (Cat D) (Homo sapiens, UniProt P07339); assay: In vitro enzymatic Cathepsin D (Cat D) FRET assay; assay type: biochemical; conditions: read-out: CatD IC50
T1 construct: Recombinant Cat D was expressed in CHO cells; made in house; host or cells: CHO cells
T1 sequence (P07339 65-412, species assumed): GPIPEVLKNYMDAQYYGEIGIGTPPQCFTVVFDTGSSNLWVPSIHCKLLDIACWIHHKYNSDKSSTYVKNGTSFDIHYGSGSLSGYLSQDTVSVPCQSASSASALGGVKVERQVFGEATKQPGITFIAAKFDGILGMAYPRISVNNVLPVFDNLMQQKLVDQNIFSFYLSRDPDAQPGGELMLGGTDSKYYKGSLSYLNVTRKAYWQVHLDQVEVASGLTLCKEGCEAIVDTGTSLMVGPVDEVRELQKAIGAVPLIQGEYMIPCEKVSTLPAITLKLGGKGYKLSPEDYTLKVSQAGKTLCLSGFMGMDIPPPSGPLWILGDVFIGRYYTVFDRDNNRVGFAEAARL
Summary of the method: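 Recombinant Cat D expressed in CHO cells, used at 9 nM and pre-incubated one hour with serially diluted inhibitor in DMSO. Peptide substrate carries a fluorophore and quencher flanking the cleavage site; reaction stopped with Tris buffer raising pH to neutrality, then fluorescence read.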

[1] = target: Beta Secretase enzyme (BACE1) (Homo sapiens, UniProt P56817); assay: In vitro enzymatic BACE FRET assay; assay type: biochemical; conditions: read-out: BACE1 FRET assay IC50
Sequence of Beta Secretase enzyme (BACE1) (P56817 46-501): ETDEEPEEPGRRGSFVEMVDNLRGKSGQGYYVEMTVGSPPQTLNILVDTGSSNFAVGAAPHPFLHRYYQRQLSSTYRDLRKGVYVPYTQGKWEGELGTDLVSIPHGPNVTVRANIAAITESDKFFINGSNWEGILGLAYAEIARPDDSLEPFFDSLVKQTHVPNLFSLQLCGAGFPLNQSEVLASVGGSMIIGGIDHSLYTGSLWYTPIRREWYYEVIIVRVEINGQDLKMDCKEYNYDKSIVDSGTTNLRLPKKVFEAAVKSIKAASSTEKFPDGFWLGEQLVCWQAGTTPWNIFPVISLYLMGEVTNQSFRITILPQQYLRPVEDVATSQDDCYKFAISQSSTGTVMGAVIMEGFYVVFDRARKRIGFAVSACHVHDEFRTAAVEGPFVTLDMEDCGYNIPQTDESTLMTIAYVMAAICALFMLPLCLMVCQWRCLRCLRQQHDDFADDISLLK
Summary of the method: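 BACE1 cleavage of a 50 nM fluorophore/quencher peptide FRET substrate ran for one hour in 0.05 M acetate pH 4.2, 10% DMSO, 100 uM genapol. Tris buffer raised pH to neutrality to stop the reaction before fluorescence was read (excitation 488 nm, […]).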

[2] = tested on: Aβ40 in conditioned medium of cells stably expressing Amyloid Precursor Protein (APP); assay: In vitro BACE cell-based assay (HEK cell assay), Aβ40 sandwich ELISA; conditions: Homo sapiens, HEK293
Summary of the method: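 APP-stably expressing cells (40K/well, grown 24 h in DMEM/10% FBS) were treated 24 h with compounds in 10-point dose response starting at 100 μM or 10 μM, 0.1% DMSO final. Secreted Aβ40 was measured by sandwich ELISA (pAb40 capture, biotinylated 6E10 detection, europium time-resolved fluorescence); IC50 from percent inhibition.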

IC50 (Cathepsin D (Cat D)) | IC50 [1] | IC50 [2] | IC50 ([1]; average IC50, enzyme assay) | IC50 ([2]; average IC50, cell assay) | IC50 ([2]; average IC50, HEK cell assay) | IC50 ([2]; Aβ40, 24 h incubation) | SMILES
81300 nM | 3.63 nM | 6.4 nM |  |  |  |  | COc1cnc(C(=O)Nc2ccc(F)c([C@@]3(C)N=C(N)C4(CCC4)S(=O)(=O)[C@@H]3F)c2)c(C)c1 [Example 137, N-(3-((6S,7R)-9-amino-6-fluoro-7-methyl-5,5-dioxido-5-thia-8-azaspiro[3.5]non-8-en-7-yl)-4-fluorophenyl)-5-methoxy-3-methylpicolinamide]
148000 nM | 1.3 nM | 27.2 nM |  |  |  |  | C[C@@]1(c2cc(NC(=O)c3ccc(Cl)cn3)ccc2F)CS(=O)(=O)C2(CC(F)(F)C2)C(N)=N1 [Example 120, (R)—N-(3-(9-amino-2,2-difluoro-7-methyl-5,5-dioxido-5-thia-8-azaspiro[3.5]non-8-en-7-yl)-4-fluorophenyl)-5-chloropicolinamide]
143000 nM |  |  | 0.31 nM | 84.5 nM |  |  | CC1(C)C(N)=N[C@](CF)(c2cc(Nc3ncc(F)c4cc(Cl)cnc34)ccc2F)CS1(=O)=O [Example 233, N-(3-((3S)-5-amino-3-(fluoromethyl)-6,6-dimethyl-1,1-dioxido-3,6-dihydro-2H-1,4-thiazin-3-yl)-4-fluorophenyl)-3-chloro-5-fluoro-1,7-naphthyridin-8-amine]
514000 nM | 3510 nM | > 15600 nM |  |  |  |  | Cc1cc(OC(F)F)cnc1C(=O)Nc1ccc(F)c([C@@]2(CF)CS(=O)(=O)C3(CCC3)C(N)=N2)c1 [Example 411, N-(3-((7R)-9-amino-7-(fluoromethyl)-5,5-dioxido-5-thia-8-azaspiro[3.5]non-8-en-7-yl)-4-fluorophenyl)-5-(difluoromethoxy)-3-methyl-2-pyridinecarboxamide]
222000 nM |  |  | 0.64 nM |  | 4.6 nM |  | Cc1cc(C#N)cnc1C(=O)Nc1ccc(F)c([C@]2(CF)CS(=O)(=O)C3(CCC3)C(N)=N2)c1 [Example 368, N-(3-((7S)-9-amino-7-(fluoromethyl)-5,5-dioxido-5-thia-8-azaspiro[3.5]non-8-en-7-yl)-4-fluorophenyl)-5-cyano-3-methyl-2-pyridinecarboxamide]
> 400000 nM | 2.9 nM |  |  |  |  | 5.6 nM | COc1cnc2c(Nc3ccc(F)c([C@]4(C)CS(=O)(=O)C(C)(C)C(N)=N4)c3)nccc2n1 [Example 47, N-(3-((3R)-5-amino-3,6,6-trimethyl-1,1-dioxido-3,6-dihydro-2H-1,4-thiazin-3-yl)-4-fluorophenyl)-2-methoxypyrido[3,4-b]pyrazin-5-amine]
661000 nM |  |  | 2.85 nM | 40.9 nM |  |  | CCOc1cnc2c(Nc3ccc(F)c([C@]4(CF)CS(=O)(=O)C(C)(C)C(N)=N4)c3)nccc2n1 [Example 237, N-(3-((3S)-5-amino-3-(fluoromethyl)-6,6-dimethyl-1,1-dioxido-3,6-dihydro-2H-1,4-thiazin-3-yl)-4-fluorophenyl)-2-ethoxypyrido[3,4-b]pyrazin-5-amine]
416000 nM |  |  | 1.46 nM |  | 208 nM |  | CCc1cc(Cl)cnc1C(=O)Nc1ccc(F)c([C@]2(CF)CS(=O)(=O)C(C)(C)C(N)=N2)c1 [Example 197, (S)—N-(3-(5-amino-3-(fluoromethyl)-6,6-dimethyl-1,1-dioxido-3,6-dihydro-2H-1,4-thiazin-3-yl)-4-fluorophenyl)-5-chloro-3-ethylpicolinamide]
346000 nM |  |  | 2.87 nM | 4 nM |  |  | CC1(C)C(N)=N[C@](C)(c2cc(Nc3nccc4nc(OCC#N)cnc34)ccc2F)CS1(=O)=O [Example 443, ((5-((3-((3R)-5-amino-3,6,6-trimethyl-1,1-dioxido-3,6-dihydro-2H-1,4-thiazin-3-yl)-4-fluorophenyl)amino)pyrido[3,4-b]pyrazin-2-yl)oxy)acetonitrile]
45600 nM | 3.76 nM | 17.7 nM |  |  |  |  | Cc1cc(OC(F)F)cnc1C(=O)Nc1ccc(F)c([C@]2(C)CS(=O)(=O)C3(CC(F)(F)C3)C(N)=N2)c1 [Example 126, (R)—N-(3-(9-amino-2,2-difluoro-7-methyl-5,5-dioxido-5-thia-8-azaspiro[3.5]non-8-en-7-yl)-4-fluorophenyl)-5-(difluoromethoxy)-3-methylpicolinamide]
